Measurements as given in patent US20220273596A1, “SYNERGISTIC COMBINATION OF S-KETOROLAC AND PREGABALIN IN A PHARMACEUTICAL COMPOSITION FOR THE TREATMENT OF NEUROPATHIC PAIN” (priority 2019, published 2022).

Experiments:
[1] = test system: mechanical hyperalgesia in rats with chronic constriction injury (CCI) of the sciatic nerve; assay: Von Frey test (mechanical hyperalgesia, 15-gram filament) in rats with chronic constriction injury of the sciatic nerve; type: in vivo, Male Wistar rats; details: for dose dependence of anti-hyperalgesic effects: given orally, alone; for Antihyperalgesic efficacy: Maximal efficacy (AUC: X ± SE): most efficacious dose po: Pregabalin 31.6 mg/Kg, S-ketorolac 3.16 mg/Kg, AUC of 180-min temporal course, n=6; for maximal antihyperalgesic effect (AUC): pregabalin 31.6 mg/Kg po, S-Ket 3.16 mg/Kg po; for Antihyperalgesic efficacy: Relative efficacy: relative to pregabalin, Pregabalin 31.6 mg/Kg po, S-ketorolac 3.16 mg/Kg po
Protocol: (§1) Male Wistar rats were used in the experiments. […] The animals were kept in polycarbonate cages under controlled temperature and light conditions, with 12-hour light/darkness cycles and free access to food and water. All experiments were performed during the light phase of the light/darkness cycles. The animals were used and handled according to the international guidelines on Ethical Standards for Investigations of Experimental Pain established by the Committee for Research and Ethical Issues of the International Association for the Study of Pain. The number of experiment animals was kept to a minimum (n=6), and at the end of the experimental assessments the animals were sacrificed using carbon dioxide.
(§2) Immediately after the rats were anesthetized, their right hind limb sciatic nerves were dissected through an incision, in which the biceps femoris muscle was dissected for locating the most proximal site to the trifurcation of the sciatic nerve, and to apply four loose ligations with silk thread.
(§3) Once the surgery was finished, the muscle was sutured with absorbable thread, and the skin was sutured with silk thread. Sham surgery in rats was performed likewise, although without ligating the sciatic nerve. All procedures were performed under aseptic conditions. The degree of hyperalgesia and allodynia in rats subjected to sciatic nerve surgery was determined using the Von Frey test (mechanical hyperalgesia) and the acetone test (cold allodynia).
Von Frey test (mechanic hyperalgesia). Rats were placed over a metallic mesh in a clear acrylic box and remained in the box at least 10 minutes before the test, in order to allow the rats to adapt to the environment. The response was determined by means of a tactile stimulus on the sole callosities of the right hindlimb with the 15-gram Von Frey filament. Ten stimuli were applied (one stimulus approximately every 3 seconds), and the response percentage was obtained (% response=number of responses/10 ×100).
(§4) In a first stage, the experimental design of the groups and the experiments were performed as follows: • a) Several groups of 6 animals with neuropathic pain (sciatic nerve ligation) were formed.
It was decided to base assessments on 6 doses of the pregabalin DRCs (0.0316, 0.1, 0.316, 1.0, 3.16 and 10 mg/Kg) and to combine them with 4 different S-ketorolac doses (0.0316, 0.10, 0.316 and 1.0 mg/Kg p.o.).

[2] = test system: cold allodynia in rats with chronic constriction injury (CCI) of the sciatic nerve; assay: Acetone test (cold allodynia) in rats with chronic constriction injury of the sciatic nerve (Bennett and Xie model); type: in vivo, Male Wistar rats; details: for anti-allodynic effect: oral, temporal course 0-180 min; for dose dependence of anti-allodynic effects: given orally, alone; for Anti-allodynic efficacy: Maximal efficacy (AUC: X ± SE): most efficacious dose po: Pregabalin 31.6 mg/Kg, S-ketorolac 1.0 mg/Kg, AUC of 180-min temporal course, maximum possible 300 au, n=6; for maximal anti-allodynic effect (AUC): pregabalin 31.6 mg/Kg po, S-Ket 1.0 mg/Kg po, 180-min temporal course; for Anti-allodynic efficacy: Relative efficacy: relative to pregabalin, Pregabalin 31.6 mg/Kg po, S-ketorolac 1.0 mg/Kg po
Protocol: as §1, §2, §3
The acetone test (cold allodynia) was performed and assessed as follows: Once the Von Frey test was finished, rats were left to rest over the metallic mesh, and after a 5-10 minute period, 0.1 mL of acetone was applied on the sole callosities of the right hindlimb with a syringe with a flexible plastic point from under the mesh. Then, a chronometer recorded the time in seconds in which the animals kept the hindlimb away from the mesh during the first 60 seconds after being exposed to acetone. The response time of the right hindlimb was measured. Three measurements were made (1 measurement every 2 minutes).
as §4
All combinations to be assessed were designed. It was decided to evaluate combinations with 24 different proportions, to have the fullest possible notion of the interaction of these 2 analgesics, and for obtaining and determining the optimal combinations in terms of efficacy and anti-allodynic potentiation.

[3] = pregabalin 10.0 mg/Kg po alone, reached 3 h after administration

SMILES	dose dependence of anti-hyperalgesic effects [1]	more anti-hyperalgesia than S-ketorolac ([1]; most effective oral doses given alone)	Antihyperalgesic efficacy: Maximal efficacy (AUC: X ± SE) [1]	antihyperalgesic effect ([1]; pregabalin 0.316 mg/Kg po alone, over the assessment period)	antihyperalgesic Emax [1, 3]	maximal antihyperalgesic effect (AUC) [1]	Antihyperalgesic efficacy: Relative efficacy [1]	anti-allodynic effect ([2]; 0.0316 mg/Kg dose)	anti-allodynic effect ([2]; 31.6 mg/Kg dose)	dose dependence of anti-allodynic effects [2]	Anti-allodynic efficacy: Maximal efficacy (AUC: X ± SE) [2]	anti-allodynic Emax [2, 3]	maximal anti-allodynic effect (AUC) [2]	Anti-allodynic efficacy: Relative efficacy [2]	antihyperalgesic effect ([1]; S-ketorolac 1.0 mg/Kg po alone)	antihyperalgesic Emax ([1]; S-ketorolac 1.0 mg/Kg po alone, reached 60 minutes after administration)	antihyperalgesic efficacy as percent of that delivered by pregabalin ([1]; S-ketorolac 3.16 mg/Kg po vs pregabalin 31.6 mg/Kg po)	anti-allodynic effect ([2]; 1.0 mg/Kg dose)	anti-allodynic Emax ([2]; S-ketorolac 0.316 mg/Kg po alone, reached 30 minutes after administration)	anti-allodynic efficacy as percent of that induced by oral pregabalin ([2]; S-ketorolac 1.0 mg/Kg po vs pregabalin 31.6 mg/Kg po)
CC(C)C[C@H](CN)CC(=O)O [Pregabalin, (3S)-3-(aminomethyl)-5-methylhexanoic acid]	dose-dependent anti-hyperalgesic effects	49%	220.4 ± 12.3	practically no antihyperalgesic effects	78.3±5.4%	220.4±12.3 ua	1.0	almost no anti-allodynic effect	significant anti-allodynic effect	dose-dependent anti-allodynic effects	241.6 ± 9.5	83.4±3.7%	241.6±9.5 ua	1.0	–	–	–	–	–	–
O=C(c1ccccc1)c1ccc2n1CCC2C(=O)O (centres unmarked) [S-ketorolac, 5-Benzoyl-2,3-dihydro-1H-pyrrolizine-1-carboxylic acid]	dose-dependent anti-hyperalgesic effects	–	112.5 ± 3.5	–	–	112.5±3.5 ua	0.51	almost no anti-allodynic effect	–	dose-dependent anti-allodynic effects	111.2 ± 20.3	–	111.2±20.3 ua	0.46	little antihyperalgesic effect	40.0±5.8%	51%	significant anti-allodynic effect	44.0±7.7%	46%
